Structures are written as SMILES. Numbering of substitutions follows the chain as printed.

For assay [1], the target named is T1, E123G, R331K, K402R (BT2-BF) (Zea mays, UniProt P55241+Q947C0, E123G/R331K/K402R).
T1 construct: BT2-BF with wild type SH2 (SH2-WT/BT2-BF), E. coli, purified
T1 sequence (Q947C0 1-475 E123G/R331K/K402R): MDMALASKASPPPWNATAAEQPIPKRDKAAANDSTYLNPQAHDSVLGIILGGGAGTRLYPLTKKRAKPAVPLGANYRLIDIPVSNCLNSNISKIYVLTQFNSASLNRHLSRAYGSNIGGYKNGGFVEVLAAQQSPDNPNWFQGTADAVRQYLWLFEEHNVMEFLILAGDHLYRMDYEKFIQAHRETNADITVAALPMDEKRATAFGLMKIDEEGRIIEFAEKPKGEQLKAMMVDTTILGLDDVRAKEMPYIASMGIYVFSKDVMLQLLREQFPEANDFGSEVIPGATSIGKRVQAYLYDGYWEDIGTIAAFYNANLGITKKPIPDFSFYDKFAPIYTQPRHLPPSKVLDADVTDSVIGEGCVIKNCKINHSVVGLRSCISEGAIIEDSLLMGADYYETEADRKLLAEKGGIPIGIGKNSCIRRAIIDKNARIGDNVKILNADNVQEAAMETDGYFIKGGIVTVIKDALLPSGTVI
T1 sequence (P55241 46-516): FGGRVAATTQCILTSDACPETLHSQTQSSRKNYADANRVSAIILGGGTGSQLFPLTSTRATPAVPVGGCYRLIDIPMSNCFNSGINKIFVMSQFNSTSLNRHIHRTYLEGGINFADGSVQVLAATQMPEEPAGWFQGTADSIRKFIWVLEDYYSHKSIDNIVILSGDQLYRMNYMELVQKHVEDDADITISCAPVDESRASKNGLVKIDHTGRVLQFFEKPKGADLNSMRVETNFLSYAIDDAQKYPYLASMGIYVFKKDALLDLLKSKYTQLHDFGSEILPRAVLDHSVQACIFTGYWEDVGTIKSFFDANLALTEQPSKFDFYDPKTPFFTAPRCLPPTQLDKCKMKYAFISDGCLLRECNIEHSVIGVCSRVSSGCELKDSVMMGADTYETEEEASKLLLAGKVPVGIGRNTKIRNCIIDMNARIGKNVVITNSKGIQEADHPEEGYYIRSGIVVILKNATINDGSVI
In words: Initial-rate assay without 3-PGA, ATP and G-1-P both varied (0.01-10 mM and 0.1-25 mM), global fit to a sequential mechanism. The assay is classed as biochemical. The settings on record: read-out: ATP Km (absence of 3-PGA). From the text: (§1) Activity in the absence of the activator 3PGA was examined. While 3PGA is a noted activator for plant AGPase, the mechanism of activation differs for the various AGPases. […] Thus, the term “activation fold” in the literature is merely an activity reported at single fixed substrate concentrations.
(§2) The small subunit mutant, MP, contains the first 198 amino acids of the small subunit of the maize endosperm enzyme and the last 277 amino acids from the potato tuber enzyme resulting in thirty-three amino acid sites that differ from the maize endosperm enzyme ([Cross et al., 2004]).

Assay [2] concerns the target T2, SH2-E/BT2-BF (Zea mays, UniProt P55241+Q947C0, E123G/N131R/T142F/A160T/Q261S/R331K/A396S/K402R/V416I/C424V/S444A).
T2 construct: SH2-E co-expressed with BT2-BF, E. coli, purified
T2 sequence (Q947C0 1-475 E123G/R331K/K402R): T1 sequence (Q947C0 1-475 E123G/R331K/K402R)
T2 sequence (P55241 46-516 N131R/T142F/A160T/Q261S/A396S/V416I/C424V/S444A): T1 sequence (P55241 46-516) with N86R, T97F, A115T, Q216S, A351S, V371I, C379V, S399A
The assay is described as above. In kind it is biochemical. The settings on record: read-out: ATP Km (absence of 3-PGA).
Text: as §1, §2

The target of assay [3] is T2, SH2-E/BT2-BF. In words: Pi inhibition study without 3-PGA, ATP varied (0.1-3 mM) at fixed Pi levels (10-30 mM) and sub-saturating G-1-P (1 mM), fit to mixed-type inhibition equations. The assay is classed as biochemical. The settings on record: read-out: Km (mM), varied substrate ATP, Pi inhibition in the absence of 3-PGA.
Description: Pi inhibition was carried out in both the presence and absence of 3-PGA with the Pi and substrate concentrations listed below.
Pi inhibition patterns in the presence and absence of 3PGA were also determined. Pi inhibition patterns were obtained by varying one substrate at several fixed concentrations of Pi, while holding the co-substrate at constant sub-saturating levels.
The target in assay [4] is T3, wt (SH2-WT/BT2-WT) (Zea mays, UniProt P55241+Q947C0). The settings on record: read-out: Km (mM), varied substrate ATP, Pi inhibition in the absence of 3-PGA.
T3 sequence (Q947C0 1-475, one chain of several): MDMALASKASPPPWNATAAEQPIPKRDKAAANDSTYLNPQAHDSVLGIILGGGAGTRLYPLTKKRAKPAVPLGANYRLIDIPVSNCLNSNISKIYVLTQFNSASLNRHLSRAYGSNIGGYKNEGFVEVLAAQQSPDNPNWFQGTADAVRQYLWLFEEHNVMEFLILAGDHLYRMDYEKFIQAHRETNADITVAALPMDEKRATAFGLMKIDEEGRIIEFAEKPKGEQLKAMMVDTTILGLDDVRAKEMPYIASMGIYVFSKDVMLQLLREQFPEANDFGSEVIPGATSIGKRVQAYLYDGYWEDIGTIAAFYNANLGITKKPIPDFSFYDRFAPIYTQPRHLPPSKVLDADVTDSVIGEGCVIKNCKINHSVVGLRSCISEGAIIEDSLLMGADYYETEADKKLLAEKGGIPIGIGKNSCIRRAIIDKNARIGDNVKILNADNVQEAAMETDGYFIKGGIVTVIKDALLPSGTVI
Assay [5] deals with T3, wt (SH2-WT/BT2-WT). Here is the method: All reactions were developed as above. The activation constant was fitted to the following equation, V = Vmin + Vmax^∗X/(Ka + X), since several enzymes had appreciable activity in the absence of activator. Here, Vmin is the velocity in the absence of activator and Vmax is the change in activity from Vmin to the total velocity, X is the activator concentration, Ka is the activation constant. All linear regressions were carried out using the software program Prism (GraphPad, San Diego, CA, United States).

What is called Km is the concentration of substrate that gives half-maximal velocity. With `Nc1ncnc2c1ncn2[C@@H]1O[C@H](COP(=O)(O)OP(=O)(O)OP(=O)(O)O)[C@@H](O)[C@H]1O` [ATP, adenosine 5'-triphosphate], the Km in assay [1] came out at 300 ± 250 µM; in assay [2], 2.41 ± 0.35 mM; in assay [3], 4.98 ± 0.66 mM; in assay [4], 20.4 ± 10.1 mM.

`O=C(O)[C@H](O)COP(=O)(O)O` [3-PGA, 3-phosphoglycerate (3-phosphoglyceric acid)]: the “3-PGA Ka (activation constant)” value in assay [5] was 0.26 ± 0.061.
